The values below come from patent US20130267594A1, “PROLYL HYDROXYLASE INHIBITORS AS RADIATION MITIGATORS AND RADIATION PROTECTORS” (priority 2010, published 2013).

The test system of one data set is MEF cells. Description: Clonogenic cell survival assay after ionizing radiation, MEFs. Type of data set: cell-based, mouse. Further details: cell survival after exposure to IR (clonogenic): dose or concentration left out as unconfirmed.
In another data set the test system is Suv39h1/2−/− cells. Description: Clonogenic cell survival assay after ionizing radiation, Suv39h1/Suv39h2 double knockout MEFs. Type of data set: cell-based, mouse.
Data set [1] has as its system MEFs expressing shRNA targeting Hif1α. Briefly: Clonogenic cell survival assay after ionizing radiation, MEFs with Hif1α silenced. Type of data set: cell-based, mouse. The note with it: DMOG 1 mM, FIG. 11A.
The test system of the next data set is H3K9me3. Briefly: Western blot of H3K9me3 in Suv39h1/2−/− MEFs (FIG. 4A). Type of data set: cell-based, mouse. Particulars: Suv39h1/2−/− cells, DMOG 100 μM/2hours. On the procedure:
Cell lysates and Western blot analysis: Antibodies used: mHif1α (Santa Cruz Biotechnology, CA); hHIF1α (Abcam, CA); H3K9me3 (Millipore, N.Y.); β-actin (Cell Signaling Technology, Mass.); CHD4 and MTA3 (Bethyl Laboratories, Tex.); Suv39h1 (Novus, CA). To prepare nuclear lysates, cells were resuspended in 500 μl buffer A (10 mM Tris, pH8.0/1 mM EDTA, pH8.0/150 mM NaCl/0.5% NP-40/1 mM PMSF/5 μg/ml leupeptin/20 μg/ml aprotinin), incubated on ice for 15 min and centrifuged at 500 g for 5 min at 4° C. Supernatant was removed and the pellet resuspended in buffer B (20 mM Hepes, pH7.9/400 mM NaCl/1 mM EDTA/0.5 mM DTT/1 mM PMSF/5 μg/ml leupeptin/20 μg/ml aprotinin), incubated on ice for 15 min and cleared by centrifugation (21,000 g for 5 min at 4° C.). For western blots, equal amounts of protein (Bradford Protein Assay kit, Bio-Rad Laboratories, CA) were separated by electrophoresis and transferred to nitrocellulose membranes (Bio-Rad Laboratories, CA). Membranes were blocked with Odyssey Blocking Buffer (Li-Cor, NB), incubated with primary antibodies for 3 h, and washed in PBST (PBS and 0.1% Tween-20) followed by goat anti-mouse IR Dye-800CW or goat anti-rabbit IR Dye-680CW secondary antibodies (Li-Cor, NB). Imaging was performed using the Li-Cor Odyssey Near Infra Red System, and analyzed using the Odyssey software system 3.0 package (Li-Cor, NB).
On the technique in general: Immunoblotting shows a protein as a band on a membrane.

Data set [2] can be described thus: Toxicity of DMOG alone in mice. Type of data set: in vivo, mouse. The note with it: DMOG 100 mg/kg ip. As for the experimental part:
Mice: This study was carried out in strict accordance with the recommendations in the Guide for the Care and Use of Laboratory Animals of the National Institutes of Health. The protocol was reviewed and approved by the Dana-Farber Cancer Institute's Animal Care and Use Committee (Protocol number 06-029). All efforts were made to minimize suffering. Male Balb/c mice were purchased from Taconic (NY, USA) and C57BL/6J mice were purchased from The Jackson Laboratory (ME, USA). For total body irradiation (TBI), mice were irradiated at the dose rate of 110 cGy/min using a ^137Cs source (Gammacell® 40Exactor, Best Theratronics, Ottawa, Canada). DMOG (dissolved in saline) or saline was administered IP before and after TBI. The mice were given normal water that had undergone reverse osmosis and powdered food (Purina Pico Lab Chow) after TBI. The animals were closely inspected after TBI for ill-health and the moribund animals were sacrificed according to the guidelines in our approved ACUC protocol. The Kaplan-Meier survival curves were plotted for saline-treated and DMOG-treated cohorts. The statistical analysis of the Kaplan-Meier survival curves was performed with Graph Pad Prism Version 5 using Mantel Log-rank test.
The preliminary observation on the radiation mitigating effects of DMOG in primary fibroblast cell lines prompted the inventors to initiate testing of DMOG in a murine model. […]

The next data set deals with MTA3. Type of data set: cell-based. Particulars: MCF-7 cells; CoCl2 200 μM 8 hr, FIG. 8E; DMOG only stated.
In the next data set the test system is CHD4. Type of data set: cell-based. The note with it: MCF7 cells; CoCl2 200 μM time course, FIG. 8F; DMOG only stated.
The test system of another data set is endogenous KDMs. Briefly: H3K9me3 immunofluorescent staining in vector-transfected HEK293T cells (FIG. 10B). Type of data set: cell-based. The note with it: DMOG 1 mM 24 hrs.
In a further data set the test system is Suv39h1. Type of data set: cell-based.

Take `COC(=O)CNC(=O)C(=O)OC` [DMOG, dimethyloxalylglycine]: the “cell survival after exposure to IR (clonogenic)” value in the data set on MEF cells (MEF cells incubated with DMOG then irradiated, FIG. 3) is “increased cell survival”. In addition, the “radioresistance (clonogenic survival)” value in the data set on MEF cells (MEFs expressing a non-specific shRNA, DMOG 1 mM, FIG. 11A) is “increased radioresistance”. Besides, the “radiosensitivity (clonogenic survival)” value in the data set with MEF cells (MEFs, DMOG 1 mM, 1 hr before IR to 24 hr after, FIG. 7C) is given as “significant decrease in radiosensitivity”. The “protection when added after irradiation (radiation mitigation, clonogenic survival)” value in the data set with MEF cells (MEFs, DMOG 48-72 hours post-irradiation, FIG. 5) is given as “significant protection”. The “radioresistance (clonogenic survival)” value in the data set with MEF cells (Suv39h1/h2+/+ cells, FIG. 4B) is “small, but significant increase in radioresistance”. In addition, the “protective effect (clonogenic survival) in SuvDKO MEFs versus normal MEFs” value with Suv39h1/2−/− cells (MEF-SuvDKO, DMOG 1 mM, FIG. 11C) is reported as “significantly reduced”. Also, the “radioprotective effect (clonogenic survival)” value in the data set with Suv39h1/2−/− cells (Suv39h1/h2−/− cells compared to +/+, FIG. 4B) is recorded as “much larger radioprotective effects”. For the same compound, the “radioresistance (clonogenic survival) when Hif1α was silenced” value in data set [1] is “this effect was lost”. Also, the “levels of H3K9me3 (Western blot)” value in the data set with H3K9me3 was “increased the levels of H3K9me3 in Suv39h1/2−/− cells to a level similar to those seen in Suv39h1/1+/+ cells”. Also, the “toxicity of DMOG alone in mice” value in data set [2] (no irradiation) is on record as “does not cause any toxicity”. Moreover, the “mice surviving at 30 days, DMOG alone” value in [2] (no irradiation (data not shown)) is 100%. Moreover, in the data set with MTA3, the “MTA3 mRNA levels” value was “increased”. In addition, the CHD4 protein levels entry with CHD4 is listed as “increased”. Also, in the data set with endogenous KDMs, the “H3K9me3 methylation in cells expressing vector” value was “increased H3K9me3 methylation”. In addition, in the data set on Suv39h1, the “DMOG dependent induction of Suv39h1 in cells lacking Hif1α” value is recorded as “abolished” and the “expression of the Suv39h1 methyltransferase” value is given as “increased expression of the Suv39h1 methyltransferase”.
